Experimental data taken from US9809623B2, “α4β7 peptide monomer and dimer antagonists” (Protagonist Therapeutics, Inc., priority 2014, dated 2017).
Numbered stars: 1 amine (or outer) side, 2 acyl side, 3 side chain; on linkers, the order of the positions; unused ones are H or OH. Bridge positions count the residues as written; N and C are the ends. Square brackets hold non-standard residues; d marks the D form. Peptide text beside a SMILES is read from it. I, II: the chains in the order shown. Phe(4-COOH) = N[C@@H](Cc1ccc(C(=O)O)cc1)C(=O)O; 1Nal = N[C@@H](Cc1cccc2ccccc12)C(=O)O; 2Nal = N[C@@H](Cc1ccc2ccccc2c1)C(=O)O; d1Nal = N[C@H](Cc1cccc2ccccc12)C(=O)O; Diglycolyl = O=C(COCC(=O)[*:2])[*:1]; NMeR = CN[C@@H](CCCNC(=N)N)C(=O)O; NMeE = CN[C@@H](CCC(=O)O)C(=O)O; Tic = O=C(O)[C@@H]1Cc2ccccc2CN1; Pen = CC(C)(S)[C@H](N)C(=O)O

Biological target: α4β7 (Homo sapiens, UniProt P13612+P26010)
Sequence (P13612 34-1032): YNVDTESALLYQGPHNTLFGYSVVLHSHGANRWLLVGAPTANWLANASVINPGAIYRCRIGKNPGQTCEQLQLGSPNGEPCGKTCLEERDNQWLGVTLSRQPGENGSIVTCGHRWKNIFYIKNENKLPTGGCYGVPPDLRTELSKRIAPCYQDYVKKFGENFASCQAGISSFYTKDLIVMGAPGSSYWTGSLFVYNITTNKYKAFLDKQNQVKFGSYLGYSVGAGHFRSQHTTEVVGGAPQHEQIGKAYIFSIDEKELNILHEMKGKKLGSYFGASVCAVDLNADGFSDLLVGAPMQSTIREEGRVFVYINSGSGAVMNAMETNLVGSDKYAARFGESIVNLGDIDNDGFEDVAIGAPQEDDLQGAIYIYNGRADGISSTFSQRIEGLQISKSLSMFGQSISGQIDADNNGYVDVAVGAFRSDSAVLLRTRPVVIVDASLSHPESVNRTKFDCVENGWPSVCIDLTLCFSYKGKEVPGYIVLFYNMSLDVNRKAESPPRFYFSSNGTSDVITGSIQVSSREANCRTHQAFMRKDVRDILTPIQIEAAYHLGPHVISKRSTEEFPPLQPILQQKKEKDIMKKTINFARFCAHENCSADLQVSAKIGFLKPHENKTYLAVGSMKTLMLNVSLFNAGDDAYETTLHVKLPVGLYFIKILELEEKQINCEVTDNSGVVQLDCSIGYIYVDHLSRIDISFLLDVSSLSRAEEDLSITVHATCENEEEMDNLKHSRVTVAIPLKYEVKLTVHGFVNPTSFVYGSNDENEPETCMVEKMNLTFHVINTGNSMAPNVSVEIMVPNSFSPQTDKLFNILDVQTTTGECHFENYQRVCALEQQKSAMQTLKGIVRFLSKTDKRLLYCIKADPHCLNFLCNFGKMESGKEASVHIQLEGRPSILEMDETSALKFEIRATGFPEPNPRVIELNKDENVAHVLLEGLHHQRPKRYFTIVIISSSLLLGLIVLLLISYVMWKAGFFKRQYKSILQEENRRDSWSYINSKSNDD
Sequence (P26010 20-798): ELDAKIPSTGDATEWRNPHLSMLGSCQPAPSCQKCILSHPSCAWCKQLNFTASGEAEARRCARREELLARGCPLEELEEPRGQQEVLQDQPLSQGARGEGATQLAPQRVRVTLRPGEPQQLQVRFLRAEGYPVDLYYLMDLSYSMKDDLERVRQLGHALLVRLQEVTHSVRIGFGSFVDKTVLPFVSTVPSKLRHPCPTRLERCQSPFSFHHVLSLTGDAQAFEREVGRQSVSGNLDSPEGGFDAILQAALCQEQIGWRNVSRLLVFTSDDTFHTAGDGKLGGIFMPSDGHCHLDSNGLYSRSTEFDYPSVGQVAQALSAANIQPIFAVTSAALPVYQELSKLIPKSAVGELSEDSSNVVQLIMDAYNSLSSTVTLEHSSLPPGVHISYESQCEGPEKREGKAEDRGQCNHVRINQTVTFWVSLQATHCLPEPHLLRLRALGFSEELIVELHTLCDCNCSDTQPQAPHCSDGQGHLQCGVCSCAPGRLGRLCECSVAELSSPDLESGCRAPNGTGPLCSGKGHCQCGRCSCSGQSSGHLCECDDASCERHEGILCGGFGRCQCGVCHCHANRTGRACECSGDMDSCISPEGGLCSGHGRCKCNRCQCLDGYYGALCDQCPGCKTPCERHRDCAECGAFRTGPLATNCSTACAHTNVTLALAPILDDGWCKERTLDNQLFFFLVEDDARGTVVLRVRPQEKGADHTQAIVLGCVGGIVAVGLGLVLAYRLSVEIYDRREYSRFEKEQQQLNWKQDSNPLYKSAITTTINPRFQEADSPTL
Test: α4β7-MAdCAM Cell Adhesion Assay (RPMI 8866 human cells)
Type: cell-based
Parameters: host or cells: RPMI 8866 human B lymphoblastoid cells
Settings: Table 3-B, Potency (α4β7); range classes; read-out: α4β7 cell (Hu) IC50
In short: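 Adhesion read-out: MTT absorbance at 570 nm minus no-cell wells, after three washes. Plates coated with rh MAdCAM-1/Fc received peptide dilutions plus 200,000 RPMI 8866 cells in Mn2+ (1 mM)-supplemented DMEM, 0.1% BSA, HEPES pH 7, incubated 30-45 min, 37 °C.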

| SMILES | IC50 [nM] |
| --- | --- |
| CC(=O)N[C@@H]1C(=O)N(C)[C@@H](CCCNC(=N)N)C(=O)N[C@@H](CO)C(=O)N[C@@H](CC(=O)O)C(=O)N[C@@H]([C@@H](C)O)C(=O)N[C@@H](CC(C)C)C(=O)N[C@H](C(=O)N[C@@H](Cc2c[nH]cn2)C(=O)N[C@@H](Cc2ccc(O)cc2)C(=O)N[C@H](CCCCNC(=O)COCC(=O)NCCCC[C@@H](NC(=O)[C@H](Cc2ccc(O)cc2)NC(=O)[C@H](Cc2c[nH]cn2)NC(=O)[C@H]2NC(=O)[C@H](CC(C)C)NC(=O)[C@H]([C@@H](C)O)NC(=O)[C@H](CC(=O)O)NC(=O)[C@H](CO)NC(=O)[C@H](CCCNC(=N)N)N(C)C(=O)[C@@H](NC(C)=O)C(C)(C)SSC2(C)C)C(N)=O)C(N)=O)C(C)(C)SSC1(C)C [compound 26] (I: Ac-[Pen][NMeR]SDTL[Pen]HY[dK]-NH2 / II: Ac-[Pen][NMeR]SDTL[Pen]HY[dK]-NH2; disulfide I:1-I:7, II:1-II:7; linker I:10-II:10 via Diglycolyl) | 100 to 500 |
| CC(=O)N[C@@H]1C(=O)N(C)[C@@H](CCCNC(=N)N)C(=O)N[C@@H](CO)C(=O)N[C@@H](CC(=O)O)C(=O)N[C@@H]([C@@H](C)O)C(=O)N[C@@H](CC(C)C)C(=O)N[C@H](C(=O)N[C@@H](Cc2ccc(C(=O)O)cc2)C(=O)N[C@H](CCC(=O)O)C(=O)N[C@H](CCCCNC(=O)COCC(=O)NCCCC[C@@H](NC(=O)[C@@H](CCC(=O)O)NC(=O)[C@H](Cc2ccc(C(=O)O)cc2)NC(=O)[C@H]2NC(=O)[C@H](CC(C)C)NC(=O)[C@H]([C@@H](C)O)NC(=O)[C@H](CC(=O)O)NC(=O)[C@H](CO)NC(=O)[C@H](CCCNC(=N)N)N(C)C(=O)[C@@H](NC(C)=O)C(C)(C)SSC2(C)C)C(N)=O)C(N)=O)C(C)(C)SSC1(C)C [compound 100] (I: Ac-[Pen][NMeR]SDTL[Pen][Phe(4-COOH)][dE][dK]-NH2 / II: Ac-[Pen][NMeR]SDTL[Pen][Phe(4-COOH)][dE][dK]-NH2; disulfide I:1-I:7, II:1-II:7; linker I:10-II:10 via Diglycolyl) | < 10 |
| CC(=O)N[C@@H]1C(=O)N(C)[C@@H](CCCNC(=N)N)C(=O)N[C@@H](CO)C(=O)N[C@@H](CC(=O)O)C(=O)N[C@@H]([C@@H](C)O)C(=O)N[C@@H](CC(C)C)C(=O)N[C@H](C(=O)N[C@@H](Cc2c[nH]c3ccccc23)C(=O)N(C)[C@@H](CCC(=O)O)C(=O)N[C@H](CCCCNC(=O)COCC(=O)NCCCC[C@@H](NC(=O)[C@H](CCC(=O)O)N(C)C(=O)[C@H](Cc2c[nH]c3ccccc23)NC(=O)[C@H]2NC(=O)[C@H](CC(C)C)NC(=O)[C@H]([C@@H](C)O)NC(=O)[C@H](CC(=O)O)NC(=O)[C@H](CO)NC(=O)[C@H](CCCNC(=N)N)N(C)C(=O)[C@@H](NC(C)=O)C(C)(C)SSC2(C)C)C(N)=O)C(N)=O)C(C)(C)SSC1(C)C [compound 31] (I: Ac-[Pen][NMeR]SDTL[Pen]W[NMeE][dK]-NH2 / II: Ac-[Pen][NMeR]SDTL[Pen]W[NMeE][dK]-NH2; disulfide I:1-I:7, II:1-II:7; linker I:10-II:10 via Diglycolyl) | 50 to 100 |
| CC(=O)N[C@@H]1C(=O)N(C)[C@@H](CCCNC(=N)N)C(=O)N[C@@H](CO)C(=O)N[C@@H](CC(=O)O)C(=O)N[C@@H]([C@@H](C)O)C(=O)N[C@@H](CC(C)C)C(=O)N[C@H](C(=O)N[C@@H](Cc2ccc3ccccc3c2)C(=O)N[C@H](Cc2c[nH]cn2)C(=O)N[C@H](CCCCNC(=O)COCC(=O)NCCCC[C@@H](NC(=O)[C@@H](Cc2c[nH]cn2)NC(=O)[C@H](Cc2ccc3ccccc3c2)NC(=O)[C@H]2NC(=O)[C@H](CC(C)C)NC(=O)[C@H]([C@@H](C)O)NC(=O)[C@H](CC(=O)O)NC(=O)[C@H](CO)NC(=O)[C@H](CCCNC(=N)N)N(C)C(=O)[C@@H](NC(C)=O)C(C)(C)SSC2(C)C)C(N)=O)C(N)=O)C(C)(C)SSC1(C)C [compound 118] (I: Ac-[Pen][NMeR]SDTL[Pen][2Nal][dH][dK]-NH2 / II: Ac-[Pen][NMeR]SDTL[Pen][2Nal][dH][dK]-NH2; disulfide I:1-I:7, II:1-II:7; linker I:10-II:10 via Diglycolyl) | 25 to 50 |
| CC(=O)N[C@@H]1C(=O)N(C)[C@@H](CCCNC(=N)N)C(=O)N[C@@H](CO)C(=O)N[C@@H](CC(=O)O)C(=O)N[C@@H]([C@@H](C)O)C(=O)N[C@@H](CC(C)C)C(=O)N[C@H](C(=O)N[C@@H](Cc2c[nH]c3ccccc23)C(=O)N[C@@H](Cc2ccc(C(=O)O)cc2)C(=O)N[C@H](CCCCNC(=O)COCC(=O)NCCCC[C@@H](NC(=O)[C@H](Cc2ccc(C(=O)O)cc2)NC(=O)[C@H](Cc2c[nH]c3ccccc23)NC(=O)[C@H]2NC(=O)[C@H](CC(C)C)NC(=O)[C@H]([C@@H](C)O)NC(=O)[C@H](CC(=O)O)NC(=O)[C@H](CO)NC(=O)[C@H](CCCNC(=N)N)N(C)C(=O)[C@@H](NC(C)=O)C(C)(C)SSC2(C)C)C(N)=O)C(N)=O)C(C)(C)SSC1(C)C [compound 105] (I: Ac-[Pen][NMeR]SDTL[Pen]W[Phe(4-COOH)][dK]-NH2 / II: Ac-[Pen][NMeR]SDTL[Pen]W[Phe(4-COOH)][dK]-NH2; disulfide I:1-I:7, II:1-II:7; linker I:10-II:10 via Diglycolyl) | 50 to 100 |
| CC(=O)N[C@@H]1C(=O)N(C)[C@@H](CCCNC(=N)N)C(=O)N[C@@H](CO)C(=O)N[C@@H](CC(=O)O)C(=O)N[C@@H]([C@@H](C)O)C(=O)N[C@@H](CC(C)C)C(=O)N[C@H](C(=O)N[C@H](Cc2cccc3ccccc23)C(=O)N[C@@H](CCC(=O)O)C(=O)N[C@H](CCCCNC(=O)COCC(=O)NCCCC[C@@H](NC(=O)[C@H](CCC(=O)O)NC(=O)[C@@H](Cc2cccc3ccccc23)NC(=O)[C@H]2NC(=O)[C@H](CC(C)C)NC(=O)[C@H]([C@@H](C)O)NC(=O)[C@H](CC(=O)O)NC(=O)[C@H](CO)NC(=O)[C@H](CCCNC(=N)N)N(C)C(=O)[C@@H](NC(C)=O)C(C)(C)SSC2(C)C)C(N)=O)C(N)=O)C(C)(C)SSC1(C)C [compound 34] (I: Ac-[Pen][NMeR]SDTL[Pen][d1Nal]E[dK]-NH2 / II: Ac-[Pen][NMeR]SDTL[Pen][d1Nal]E[dK]-NH2; disulfide I:1-I:7, II:1-II:7; linker I:10-II:10 via Diglycolyl) | 25 to 50 |
| COc1ccc(C[C@H](NC(=O)[C@H]2NC(=O)[C@H](CC(C)C)NC(=O)[C@H]([C@@H](C)O)NC(=O)[C@H](CC(=O)O)NC(=O)[C@H](CO)NC(=O)[C@H](CCCNC(=N)N)N(C)C(=O)[C@@H](NC(C)=O)C(C)(C)SSC2(C)C)C(=O)N[C@H](CCC(=O)O)C(=O)N[C@H](CCCCNC(=O)COCC(=O)NCCCC[C@@H](NC(=O)[C@@H](CCC(=O)O)NC(=O)[C@H](Cc2ccc(OC)cc2)NC(=O)[C@H]2NC(=O)[C@H](CC(C)C)NC(=O)[C@H]([C@@H](C)O)NC(=O)[C@H](CC(=O)O)NC(=O)[C@H](CO)NC(=O)[C@H](CCCNC(=N)N)N(C)C(=O)[C@@H](NC(C)=O)C(C)(C)SSC2(C)C)C(N)=O)C(N)=O)cc1 [compound 103] (I: Ac-[Pen][NMeR]SDTL[Pen]Y(Me)[dE][dK]-NH2 / II: Ac-[Pen][NMeR]SDTL[Pen]Y(Me)[dE][dK]-NH2; disulfide I:1-I:7, II:1-II:7; linker I:10-II:10 via Diglycolyl) | 25 to 50 |
| CC(=O)N[C@@H]1C(=O)N(C)[C@@H](CCCNC(=N)N)C(=O)N[C@@H](CO)C(=O)N[C@@H](CC(=O)O)C(=O)N[C@@H]([C@@H](C)O)C(=O)N[C@@H](CC(C)C)C(=O)N[C@H](C(=O)N[C@@H](Cc2cccc3ccccc23)C(=O)N2Cc3ccccc3C[C@H]2C(=O)N[C@H](CCCCNC(=O)COCC(=O)NCCCC[C@@H](NC(=O)[C@@H]2Cc3ccccc3CN2C(=O)[C@H](Cc2cccc3ccccc23)NC(=O)[C@H]2NC(=O)[C@H](CC(C)C)NC(=O)[C@H]([C@@H](C)O)NC(=O)[C@H](CC(=O)O)NC(=O)[C@H](CO)NC(=O)[C@H](CCCNC(=N)N)N(C)C(=O)[C@@H](NC(C)=O)C(C)(C)SSC2(C)C)C(N)=O)C(N)=O)C(C)(C)SSC1(C)C [compound 115] (I: Ac-[Pen][NMeR]SDTL[Pen][1Nal][Tic][dK]-NH2 / II: Ac-[Pen][NMeR]SDTL[Pen][1Nal][Tic][dK]-NH2; disulfide I:1-I:7, II:1-II:7; linker I:10-II:10 via Diglycolyl) | 100 to 500 |
| CC(=O)N[C@@H]1C(=O)N(C)[C@@H](CCCNC(=N)N)C(=O)N[C@@H](CO)C(=O)N[C@@H](CC(=O)O)C(=O)N[C@@H](CC(=O)O)C(=O)N[C@@H](CC(C)C)C(=O)N[C@H](C(=O)N[C@@H](Cc2ccc(C(C)(C)C)cc2)C(=O)N[C@@H](CCC(=O)O)CC(=O)N[C@H](CCCCNC(=O)CN(CC(=O)NCCCC[C@@H](NC(=O)C[C@H](CCC(=O)O)NC(=O)[C@H](Cc2ccc(C(C)(C)C)cc2)NC(=O)[C@H]2NC(=O)[C@H](CC(C)C)NC(=O)[C@H](CC(=O)O)NC(=O)[C@H](CC(=O)O)NC(=O)[C@H](CO)NC(=O)[C@H](CCCNC(=N)N)N(C)C(=O)[C@@H](NC(C)=O)C(C)(C)SSC2(C)C)C(N)=O)C(=O)CCN)C(N)=O)C(C)(C)SSC1(C)C [compound 191] | 10000 to 100000 |
| CC(=O)N[C@@H]1C(=O)N(C)[C@@H](CCCNC(=N)N)C(=O)N[C@@H](CO)C(=O)N[C@@H](CC(=O)O)C(=O)N[C@@H]([C@@H](C)O)C(=O)N[C@@H](CC(C)C)C(=O)N[C@H](C(=O)N[C@@H](Cc2c[nH]c3ccccc23)C(=O)N[C@H](CCC(=O)O)C(=O)N[C@H](CCCCNC(=O)CN(CC(=O)NCCCC[C@@H](NC(=O)[C@@H](CCC(=O)O)NC(=O)[C@H](Cc2c[nH]c3ccccc23)NC(=O)[C@H]2NC(=O)[C@H](CC(C)C)NC(=O)[C@H]([C@@H](C)O)NC(=O)[C@H](CC(=O)O)NC(=O)[C@H](CO)NC(=O)[C@H](CCCNC(=N)N)N(C)C(=O)[C@@H](NC(C)=O)C(C)(C)SSC2(C)C)C(N)=O)C(=O)CCNC(=O)CCCCC2SCC3NC(=O)NC32)C(N)=O)C(C)(C)SSC1(C)C (some centres unmarked) [compound 71] | 25 to 50 |
| CC[C@H](C)[C@@H]1NC(=O)[C@H](CC(=O)O)NC(=O)[C@H](CO)NC(=O)[C@H](CCCNC(=N)N)N(C)C(=O)[C@@H](NC(C)=O)C(C)(C)SSC(C)(C)[C@@H](C(=O)N[C@@H](Cc2ccc3ccccc3c2)C(=O)N[C@H](CCC(=O)O)C(N)=O)NC(=O)[C@H](CC(C)C)NC1=O [compound 160] (Ac-[Pen][NMeR]SDIL[Pen][2Nal][dE]-NH2; disulfide 1-7) | 1000 to 10000 |
